What was measured:
telomerase = target: T1, telomerase (Homo sapiens, UniProt O14746); test: Digital droplet telomerase extension (ddTRAP) assay; assay type: cell-based; conditions: HeLa cells treated for 24 hrs, FIG. 4F
T1 construct: endogenous in cells; host or cells: HeLa
From the text: FIGS. 4A-4F show Tnks inhibitors induce telomeric stress in human cells independently of Wnt/β-catenin pathway inhibition. (FIG. 4A) Porcn inhibitors afford a Tnks-independent approach to disrupting Wnt/β-catenin signaling. Chemicals targeting the Wnt acyltransferase Porcn abrogate Wnt palmitoylation which in turn results in loss of activity of the Frizzled (Fzd) family of Wnt receptors. Fzd receptors directly induce activation of the cytoplasmic signaling molecule Dishevelled (Dvl) in a ligand-dependent manner, which in turn results in activation of β-catenin and transcription mediated by the TCF family of DNA binding proteins. […] The appearance of co-localized Terf2 and pH2A.X (an indicator of DNA damage at the telomere ends; Telomere Induced Foci or TIFs) was scored using indirect immunofluorescence in Hela cells (expressing wild-type Apc protein). (FIG. 4C) Quantification of results represented in “B”. Cells with >5 TIFs were scored as positive for telomeric damage (left bars). […]
The ddTRAP assay was performed as previously described (Ludlow, et al., 2014). […] Fluorescence was quantitated using a QX200 droplet reader (Bio-Rad) in the 6-Fam channel. Thresholds for quantitation were determined by comparison to a telomerase negative fibroblast cell line and no cell input negative control samples and untreated Hela cell positive control samples.

Tnks enzymes = conditions: cited from earlier work

T1 sequence (O14746 whole entry): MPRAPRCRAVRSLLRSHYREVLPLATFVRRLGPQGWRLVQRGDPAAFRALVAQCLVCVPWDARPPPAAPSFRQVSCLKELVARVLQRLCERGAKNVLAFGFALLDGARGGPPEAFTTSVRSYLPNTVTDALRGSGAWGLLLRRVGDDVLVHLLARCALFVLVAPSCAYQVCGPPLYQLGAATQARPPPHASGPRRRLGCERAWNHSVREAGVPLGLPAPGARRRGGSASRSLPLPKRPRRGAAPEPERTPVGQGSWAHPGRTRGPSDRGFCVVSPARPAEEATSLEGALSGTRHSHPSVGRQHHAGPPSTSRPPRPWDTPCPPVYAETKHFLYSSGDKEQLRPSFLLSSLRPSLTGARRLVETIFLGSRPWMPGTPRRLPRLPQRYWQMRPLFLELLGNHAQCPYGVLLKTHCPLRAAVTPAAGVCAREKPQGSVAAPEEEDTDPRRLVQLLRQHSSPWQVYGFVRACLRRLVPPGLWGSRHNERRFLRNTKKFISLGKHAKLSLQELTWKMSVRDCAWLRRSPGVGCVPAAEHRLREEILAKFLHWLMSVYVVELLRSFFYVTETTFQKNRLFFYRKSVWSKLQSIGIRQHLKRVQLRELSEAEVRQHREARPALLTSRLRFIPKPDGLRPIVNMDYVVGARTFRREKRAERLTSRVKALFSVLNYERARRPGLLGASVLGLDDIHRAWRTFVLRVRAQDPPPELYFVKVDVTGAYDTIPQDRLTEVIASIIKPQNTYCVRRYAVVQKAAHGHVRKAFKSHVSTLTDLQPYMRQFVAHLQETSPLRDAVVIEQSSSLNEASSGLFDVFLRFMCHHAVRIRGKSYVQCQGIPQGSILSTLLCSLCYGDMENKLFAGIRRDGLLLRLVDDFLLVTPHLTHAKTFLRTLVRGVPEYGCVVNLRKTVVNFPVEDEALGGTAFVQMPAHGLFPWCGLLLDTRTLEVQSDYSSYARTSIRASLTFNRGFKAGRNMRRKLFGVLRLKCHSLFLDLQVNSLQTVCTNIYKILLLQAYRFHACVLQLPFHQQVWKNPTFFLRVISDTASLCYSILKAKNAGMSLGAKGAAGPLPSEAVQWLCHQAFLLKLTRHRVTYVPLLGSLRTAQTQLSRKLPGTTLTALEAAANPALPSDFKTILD
T1 sequence (O60832 whole entry partner): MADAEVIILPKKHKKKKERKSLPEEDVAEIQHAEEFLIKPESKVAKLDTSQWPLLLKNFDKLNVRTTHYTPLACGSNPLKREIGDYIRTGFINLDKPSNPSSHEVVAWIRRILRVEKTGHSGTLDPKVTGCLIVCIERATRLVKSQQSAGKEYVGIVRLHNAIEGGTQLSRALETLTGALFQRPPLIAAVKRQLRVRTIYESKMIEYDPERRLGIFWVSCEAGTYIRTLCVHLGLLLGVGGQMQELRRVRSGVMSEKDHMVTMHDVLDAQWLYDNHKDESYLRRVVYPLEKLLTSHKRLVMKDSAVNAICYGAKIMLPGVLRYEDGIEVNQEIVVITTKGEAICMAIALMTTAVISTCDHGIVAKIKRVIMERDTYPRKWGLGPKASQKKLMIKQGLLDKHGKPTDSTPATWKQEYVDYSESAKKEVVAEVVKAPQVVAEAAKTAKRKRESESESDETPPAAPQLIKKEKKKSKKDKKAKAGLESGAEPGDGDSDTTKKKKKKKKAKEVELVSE
T1 sequence (Q9NPE3 whole entry partner): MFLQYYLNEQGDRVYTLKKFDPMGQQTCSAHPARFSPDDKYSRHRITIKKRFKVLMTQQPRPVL
T1 sequence (Q9NX24 whole entry partner): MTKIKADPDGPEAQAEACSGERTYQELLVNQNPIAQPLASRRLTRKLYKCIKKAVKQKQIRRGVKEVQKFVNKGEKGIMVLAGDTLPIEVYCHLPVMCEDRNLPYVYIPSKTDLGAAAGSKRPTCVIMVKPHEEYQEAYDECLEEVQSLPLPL
T1 sequence (Q9NY12 whole entry partner): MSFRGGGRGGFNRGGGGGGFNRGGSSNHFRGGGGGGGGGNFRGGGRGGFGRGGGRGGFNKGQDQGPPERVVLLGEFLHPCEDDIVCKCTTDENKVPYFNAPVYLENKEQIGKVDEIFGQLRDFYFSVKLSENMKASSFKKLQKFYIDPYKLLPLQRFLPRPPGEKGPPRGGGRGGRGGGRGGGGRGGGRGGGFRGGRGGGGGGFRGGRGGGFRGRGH
T1 sequence (Q9BUR4 whole entry partner): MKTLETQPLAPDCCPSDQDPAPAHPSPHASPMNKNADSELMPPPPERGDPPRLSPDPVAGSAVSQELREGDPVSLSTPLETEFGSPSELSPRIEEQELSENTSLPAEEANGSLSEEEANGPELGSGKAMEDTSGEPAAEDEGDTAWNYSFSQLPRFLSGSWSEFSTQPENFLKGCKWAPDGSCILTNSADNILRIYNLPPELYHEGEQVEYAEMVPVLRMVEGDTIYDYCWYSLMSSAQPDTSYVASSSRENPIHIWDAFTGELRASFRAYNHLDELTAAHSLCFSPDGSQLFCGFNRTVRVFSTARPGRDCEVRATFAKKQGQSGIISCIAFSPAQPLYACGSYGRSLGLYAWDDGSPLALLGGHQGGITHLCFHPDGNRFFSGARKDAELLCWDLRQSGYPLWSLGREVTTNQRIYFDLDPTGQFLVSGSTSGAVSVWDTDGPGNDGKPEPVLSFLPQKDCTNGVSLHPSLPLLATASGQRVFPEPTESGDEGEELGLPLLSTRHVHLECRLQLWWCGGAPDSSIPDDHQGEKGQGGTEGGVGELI

O=C(Nc1cccc2cccnc12)c1ccc(N2C(=O)[C@@H]3[C@H](C2=O)[C@@H]2C=C[C@H]3C2)cc1 [IWR-1]
telomerase activity (telomerase): direct inactivation of telomerase by Tnks inhibitors was ruled out
specificity for Tnks enzymes over several other PARPs compared to XAV-939 (Tnks enzymes): ~100 fold
